How the values were obtained:
[1] = system: mouse pre-osteoblastic cell MC3T3-E1; assay: Calcium deposition amount by Calcium C Test Wako; format: cell-based; details: for activity at 20 µM: Mus musculus, MC3T3-E1; for activity at 20 µM / Relative Calcium Deposition Amount (%): flavonoid comparison, Calcium C Test Wako, relative to 0.2% (v/v) ethanol negative control; for calcium deposition in vitro: glycosides
Text: Other flavonoid compounds than kaempferol or hesperetin were investigated where they have the same effect or not. Flavone (commercialized by Kanto Kagaku, Tokyo, Japan), apigenin (commercialized by Funakoshi, Co., Ltd., Tokyo, Japan), flavonol (commercialized by Tokyo Kasei Kogyo, Co., Ltd., Tokyo, Japan), quercetin (commercialized by Kanto Kagaku, Tokyo, Japan), kaempferol (commercialized by Funakoshi, Co., Ltd., Tokyo, Japan), rutin (commercialized by Kanto Kagaku, Tokyo, Japan), flavanone (commercialized by Kanto Kagaku, Tokyo, Japan), naringenin (commercialized by Ardrich Corporation), hesperetin (commercialized by Funakoshi, Co., Ltd., Tokyo, Japan), hesperidin (commercialized by Kanto Kagaku, Tokyo, Japan), chalcone (commercialized by Merk Corporation), fuloretin (commercialized by Sigma Corporation), catechin (commercialized by Sigma Corporation), ipriflavone (commercialized by Daito Corporation, Toyama, Japan), taxifolin (commercialized by Funakoshi, Co., Ltd., Tokyo, Japan), sulfuretin (commercialized by Funakoshi, Co., Ltd.; Tokyo, Japan), or cyanidin (commercialized by Funakoshi, Co., Ltd., Tokyo, Japan) was selected as test samples. Alkaline phosphatase activity was measured by the method of Experiment 1. Calcium deposition was measured by usual method using “Calcium C Test Wako” (commercialized by Wako Pure Chemical Industries, Osaka, Japan), briefly, cultured cells were washed with 1 ml of Dulbecco phosphate buffer saline three times after removing the medium. To the resultant was added 0.5 ml of 2N hydrochloric acid to resolve deposited calcium. To 5 μl of the resultant solution were added 0.5 ml of 0.88M monoethanolamine buffer (pH11) and 0.05 ml of 0.63 mM o-cresolphthalein complexone solution (binding to calcium ion to form chelate complex) containing 69 mM 8-quinolinol and mixed. Calcium amount per one hole of the plate was calculated by measuring absorbance 570 nm of the resultants and standardizing with a standard calcium solution. The judgement of alkaline phosphatase activity or calcium deposition amount of each sample was to calculate the relative activity or the relative calcium deposition amount to the negative control (only medium containing 0.2% (v/v) ethanol) and to compare each other.
The enhancement of calcium deposition between kaempferol and ipripfavone were compared. Test samples and their adding manner were same as Experiment 4. Calcium deposition amount was measured by usual method using “Calcium C Test Wako” (commercialized by Wako Pure Chemical Industries, Osaka, Japan); briefly, cultured cells were washed with 1 ml of Dulbecco phosphate buffer saline three times after removing the medium. To the resultant was added 0.5 ml of 2N hydrochloric acid to resolve deposited calcium. To 5 μl of the resolving solution were added 0.5 ml of 0.88M monoethanolamine buffer (pH11) and 0.05 ml of 0.63 mM o-cresolphthalein complexone solution (binding to calcium ion to form chelate complex) containing 69 mM 8-quinolinol and mixed, Calcium amount per one hole of the plate was calculated by measuring absorbance 570 nm of the resultants and standardizing with a standard calcium solution.
Kaempferol or hesperetin in combination with ipriflavone, or a kind of isoflavones, was investigated whether to enhance calcium deposition or not. Methods for preparing samples and culturing the cells were the same method described in Experiment 1 except culturing the cells for five days, Method for measuring calcium was the same method described in Experiment 3 and 5. Final ethanol concentration of the medium containing each sample was adjusted as same concentration.

[2] = system: mouse pre-osteoblastic cell MC3T3-E1; assay: Alkaline phosphatase activity in mouse pre-osteoblastic cells; format: cell-based; details: for activity at 20 µM: Mus musculus; for alkaline phosphatase activity in vitro: glycosides
Description: To increase number of osteoblastic cells having calcium-deposition activity is important for increasing bone mass. […] The activity is at low level in pre-osteoblastic cells and at high level in osteoblastic cells differentiated form the pre-osteoblastic cells. […] Since final ethanol concentration in the medium is 0.2% (v/v), α-MEM medium containing 0.2% (v/v) ethanol was prepared as a negative control. The cells were inoculated for eight days as changing the medium therewith to fresh medium with or without each sample per three days. Alkaline phosphatase activity was measured using “Alkaline Phospha B-Test Wako” (commercialized by Wako Pure Chemical Industries, Osaka, Japan) according with Kajii et al (Archives of Oral Biology, Vol. 44, pp. 233-241, (1999)). Briefly, to the above described mouse pre-osteoblastic cells washed with 1 ml of 0.25 M sucrose solution three times after removing the medium were added 0.45 ml of 50 mM carbonate salt buffer (pH9.8) containing 1 mM magnesium chloride and 50 mM sucrose and 0.05 ml of 3.4 mM disodium p-nitrophenyl phosphate in due course. The mixture was incubated at 25° C. for five minutes and admixed with 1.5 ml of 0.6N sodium hydroxide as a reaction terminator. Absorbance 405 nm of p-nitrophenol generated by alkaline phosphatase in the resulting mixture was measured, and the obtained values were used as values as alkaline phosphatase activity. […] The experiment was performed by the method according to Experiment 1 except that culture day in the medium containing each sample was three, six or nine, and concentration of each sample was 5, 10 or 20 μM. […] As a negative control, mediums containing ethanol in the above concentration were prepared for calculating relative activity to the activity of each control.

Rat Femur and Tibia = assay: Enhancing calcium deposition in rat femur and tibia; format: in vivo; details: for Calcium Content Per One Dried Bone / Dried Bone Mass: rats fed sample in high sucrose feeding stuff for eight weeks; for calcium deposition in femur and tibia: rats, eight weeks feeding
Description: The experiment was performed using six three-weeks-aged female Wister rats per one group. The rats were fed with high sucrose feeding stuff containing ingredients listed Table 11 (In the Table, each value means “weight %”.) and one part by weight of each test sample; hesperetin (commercialized by Funakoshi, Co., Ltd., Tokyo, Japan), quercetin (commercialized by Tokyo Kasei Kogyo, Co., Ltd., Tokyo, Japan), α-glycosyl hesperidin (product name “αG HESPERIDINE”, commercialized by Hayashibara Shoji Inc., Okayama, Japan), α-glycosyl rutin (product name “αG RUTIN P”, commercialized by Hayashibara Shoji Inc., Okayama, Japan), or ipriflavone (commercialized by Daito Corporation, Toyama, Japan) (positive control). As a negative control, rats fed with feedstuff containing one part by weight of sucrose replacing test sample were prepared. The rats were allowed to freely take water. The rats were killed after eight weeks, and then, their femurs and tibias were excised. Each femur or tibia dried at 100° C. for about six hours was measured by electric even balance for high precision analysis (product name “HA180M/12QM”, commercialized by A & D Co, Ltd., Tokyo, Japan), and then, each bone was placed into a crucible and burned in an incinerator at 950° C. for six hours. The cinerary resultant was resolved in hydrochloric solution and provided for measuring calcium amount by atomic absorption photometer. Calcium amount per one dried bone was calculated and compared each other.

[3] = MC3T3-E1, flavonoid comparison, method of Experiment 1, relative to 0.2% (v/v) ethanol negative control
[4] = flavonoid comparison, method of Experiment 1, relative to 0.2% (v/v) ethanol negative control
[5] = 192 h, MC3T3-E1, 20 mM each compound (so in the source), eight days, relative to 0.2% (v/v) ethanol negative control
[6] = MC3T3-E1, 20 mM each compound (so in the source), eight days, relative to 0.2% (v/v) ethanol negative control

Row | Compound | activity at 20 µM [1] | activity at 20 µM [2, 3] | Relative Calcium Deposition Amount (%) [1] | Relative Alkaline Phosphatase Activity (%) [2, 4] | other results
1 | O=C1c2c(O)cc(O)cc2O[C@H](c2ccc(O)c(O)c2)[C@H]1O [Taxifolin] | 234% | 98% | – | – | –
2 | O=c1cc(-c2ccccc2)oc2ccccc12 [Flavone] | 158% | 103% | – | – | –
3 | CC(C)Oc1ccc2c(=O)c(-c3ccccc3)coc2c1 [Ipriflavone, reference compound] | – | – | 263% | 114% | Calcium Content Per One Dried Bone (Rat Femur and Tibia; Femur): 120.0 mg; Dried Bone Mass (Rat Femur and Tibia; Femur): 0.428 g; Calcium Content Per One Dried Bone (Rat Femur and Tibia; Tibia): 106.0 mg; Dried Bone Mass (Rat Femur and Tibia; Tibia): 0.338 g
4 | O=C1C[C@@H](c2ccc(O)cc2)Oc2cc(O)cc(O)c21 [Naringenin] | 271% | 110% | – | – | –
5 | Oc1cc(O)c2cc(O)c(-c3ccc(O)c(O)c3)[o+]c2c1 [Cyanidin] | – | – | 216% | 115% | –
6 | O=c1c(O)c(-c2ccccc2)oc2ccccc12 [Flavonol] | 295% | 139% | – | – | –
7 | O=c1c(O)c(-c2ccc(O)c(O)c2)oc2cc(O)cc(O)c12 [Quercetin] | 118% | 120% | – | – | Calcium Content Per One Dried Bone (Rat Femur and Tibia; Femur): 120.3 mg; Dried Bone Mass (Rat Femur and Tibia; Femur): 0.456 g; Calcium Content Per One Dried Bone (Rat Femur and Tibia; Tibia): 108.7 mg; Dried Bone Mass (Rat Femur and Tibia; Tibia): 0.352 g
8 | Cn1c(=O)c2c(ncn2C)n(C)c1=O [Caffein, caffein] | – | – | – | – | activity at 20 µM [2, 5]: 100%
9 | tocopherol | – | – | – | – | Relative Alkaline Phosphatase Activity (%) [2, 6]: 100%
10 | Phloretin | – | – | 238% | 109% | –
11 | O=C1CC(c2ccccc2)Oc2ccccc21 (centres unmarked) [Flavanone] | 311% | 109% | – | – | –
12 | COc1ccc([C@@H]2CC(=O)c3c(O)cc(O[C@@H]4O[C@H](CO[C@@H]5O[C@@H](C)[C@H](O)[C@@H](O)[C@H]5O)[C@@H](O)[C@H](O)[C@H]4O)cc3O2)cc1O [Hesperidin] | – | – | 118% | 107% | calcium deposition in vitro [1]: did not demonstrate; enhancement of alkaline phosphatase activity, daily course (FIG. 1) ([2]; 5, 10 or 20 μM, culture day three, six or nine, relative to ethanol control): remarkable enhancement of alkaline phosphatase activity at third day; alkaline phosphatase activity in vitro [2]: did not demonstrate; calcium deposition in femur and tibia (Rat Femur and Tibia): increase of calcium deposition content
13 | CC1=C(/C=C/C(C)=C/C=C/C(C)=C/C=C/C=C(C)/C=C/C=C(C)/C=C/C2=C(C)CCCC2(C)C)C(C)(C)CCC1 [β-Carotene, β-carotene] | – | – | – | – | activity at 20 µM [2, 5]: 81%
14 | COc1cc(C=O)ccc1O [Vanillin, vanillin] | – | – | – | – | activity at 20 µM [2, 5]: 89%
15 | Cc1cc(=O)oc2cc(O)ccc12 [4-Methylumbelliferone] | – | – | – | – | Relative Alkaline Phosphatase Activity (%) [2, 6]: 96%
16 | C[C@@H]1O[C@@H](OC[C@H]2O[C@@H](Oc3c(-c4ccc(O)c(O)c4)oc4cc(O)cc(O)c4c3=O)[C@H](O)[C@@H](O)[C@@H]2O)[C@H](O)[C@H](O)[C@H]1O [Rutin] | – | – | 74% | 109% | –
17 | CC1CCC(C(C)C)C(O)C1 (centres unmarked) [Menthol, menthol] | – | – | – | – | activity at 20 µM [2, 5]: 95%
18 | α-glycosyl hesperidin | – | – | – | – | calcium deposition in vitro [1]: did not demonstrate; alkaline phosphatase activity in vitro [2]: did not demonstrate; Calcium Content Per One Dried Bone (Rat Femur and Tibia; Femur): 126.9 mg; Dried Bone Mass (Rat Femur and Tibia; Femur): 0.454 g; Calcium Content Per One Dried Bone (Rat Femur and Tibia; Tibia): 109.5 mg; Dried Bone Mass (Rat Femur and Tibia; Tibia): 0.349 g; calcium deposition in femur and tibia (Rat Femur and Tibia): increase of calcium deposition content
19 | CC1(C)[C@@H](O[C@H]2O[C@H](C(=O)O)[C@@H](O)[C@H](O)[C@H]2O[C@@H]2O[C@H](C(=O)O)[C@@H](O)[C@H](O)[C@H]2O)CC[C@]2(C)[C@H]3C(=O)C=C4[C@@H]5C[C@@](C)(C(=O)O)CC[C@]5(C)CC[C@@]4(C)[C@]3(C)CC[C@@H]12 [Glycyrrizinic Acid] | – | – | – | – | Relative Alkaline Phosphatase Activity (%) [2, 6]: 97%
20 | O=C1/C(=C/c2ccc(O)c(O)c2)Oc2cc(O)ccc21 [Sulfuretin] | – | – | 157% | 126% | –
21 | O=c1cc(-c2ccc(O)cc2)oc2cc(O)cc(O)c12 [Apigenin] | 247% | 128% | – | – | –
22 | O.Oc1cc(O)c2c(c1)O[C@H](c1ccc(O)c(O)c1)[C@@H](O)C2 [Catechin] | – | – | 247% | 118% | –
23 | O=C(/C=C/c1ccccc1)c1ccccc1 [Chalcone] | 104% | 105% | – | – | –

Reference: patent US8778882B2, “Agent for strengthening calcium containing tissue and use thereof” (Hayashibara Co., Ltd., priority 2002, dated 2014)
